In brackets after ≈: the same amount, converted by molar mass. Bounds are passed on as bounds.

One test concerns Aspergillus niger. In words: Antimycotic in vitro activity (series dilution test, MIC). The settings on record: Sabouraud's milieu d'epreuve, 28° C., 24 to 96 hours, 5 × 10^4 germs/ml, read-out: MIC values in γ/ml of nutrient medium with Aspergillus niger. The format is cell-based. The method, then:
(§1) Antimycotic in vitro activity Description of the experiment The in vitro tests were carried out in a series dilution test using germ inocula with an average of 5 × 10^4 germs/ml of substrate. The nutrient medium used was a) for dermatophytes and molds: Sabouraud's milieu d'epreuve and b) for yeasts: meat extract/glucose broth. The incubation temperature was 28° C. and the incubation time was 24 to 96 hours.

For another test, the system named is Candida albicans. The test is described as above. The test is classed as cell-based. The settings on record: meat extract/glucose broth, 28° C., 24 to 96 hours, 5 × 10^4 germs/ml, read-out: MIC values in γ/ml of nutrient medium with Candida albicans. As for the experimental part:
as §1

The test system of the next test is Microsporum felinum. The test is described as above. The test is classed as cell-based. The settings on record: Sabouraud's milieu d'epreuve, 28° C., 24 to 96 hours, 5 × 10^4 germs/ml, read-out: MIC values in γ/ml of nutrient medium with Microsporum felinum. The method, then: as §1
Another test has as its system Penicillium commune. The test is described as above. The format is cell-based. To be noted: Sabouraud's milieu d'epreuve, 28° C., 24 to 96 hours, 5 × 10^4 germs/ml, read-out: MIC values in γ/ml of nutrient medium with Penicillium commune. The method, then: as §1
Test [1] concerns Trichophyton mentagrophytes. The test is described as above. The test is classed as cell-based. The settings on record: Sabouraud's milieu d'epreuve, 28° C., 24 to 96 hours, 5 × 10^4 germs/ml, read-out: MIC values in γ/ml of nutrient medium with Trichophyton mentagrophytes. The method, then:
as §1

Another test concerns Candida cells. Nature of the test: Antimycotic in vivo activity on candidosis in mice. The arrangement: species or system mice of the SPF-CF1 type. The settings on record: mice infected i.v. with Candida; 100 mg/kg orally one hour before and seven hours after infection; untreated survival about 5%. As for the experimental part:
antimycotic in vivo activity on candidosis in mice Description of the experiment Mice of the SPF-CF1 type were infected intravenously with 1-2 × 10^6 logarithmically-growing Candida cells, which were suspended in physiological sodium chloride solution. One hour before and seven hours after the infection the animals were treated orally with, in each case, 100 mg of the formulations per kg of body weight. Untreated animals died of the infection 3 to 6 days after infection. The survival rate on the 6th day after infection was about 5% in the case of the untreated control animals

For the compound `CC(=O)OC(C(Oc1ccc(-c2ccc(Cl)cc2)cc1)n1ccnc1)C(C)(C)C` (stereo not shown) [drawing 11], the MIC with Aspergillus niger was 64 µg/mL (≈ 155 µM); in the test with Candida albicans it was 32 µg/mL (≈ 77.5 µM); in the test with Microsporum felinum, 32 µg/mL (≈ 77.5 µM); in the test on Penicillium commune, 64 µg/mL (≈ 155 µM); in test [1], < 1 µg/mL.
Consider `CC(=O)OC(C(Oc1ccc(-c2ccc(Cl)cc2)cc1)n1ccnc1)C(C)(C)C` (stereo not shown) [drawing 18], for which, in the test with Candida cells, the “Action (survivors on the 6th day after infection)” value (“Action” for short) is given as “++++ (good action = ≥ 80% survivors on the 6th day after infectio)”.
As for `CC(C)(C)c1ccc(OC(C(O)C(C)(C)C)n2ccnc2)cc1` (stereo not shown), the values for the MIC (in the test with Candida albicans; with Penicillium commune; in test [1]) were 64 µg/mL (≈ 202 µM), > 64 µg/mL and 32 µg/mL (≈ 101 µM), respectively.
Regarding `CC(=O)OC(C(Oc1ccc(-c2ccccc2)cc1)n1ccnc1)C(C)(C)C` (stereo not shown), the MIC in the test with Aspergillus niger was < 1 µg/mL; in the test with Candida albicans it was 64 µg/mL (≈ 169 µM); with Microsporum felinum it was 8 µg/mL (≈ 21.1 µM); in the test with Penicillium commune, 8 µg/mL (≈ 21.1 µM); in test [1], < 1 µg/mL.
Turning to `CC(=O)OC(C(Oc1ccc(I)cc1)n1ccnc1)C(C)(C)C` (stereo not shown) [drawing 20], the “Action” value in the test on Candida cells is listed as “+ (trace action = < 40% survivors on 6th day after infection)”.
Take `CC(C)(C)C(O)C(Oc1cccc(Cl)c1)n1ccnc1` (stereo not shown) [drawing 4]: the MIC in the test with Candida albicans is 32 µg/mL (≈ 109 µM); in the test with Penicillium commune, > 64 µg/mL; in test [1], 64 µg/mL (≈ 217 µM).
In the case of `CC(=O)OC(C(Oc1ccc(I)cc1)n1ccnc1)C(C)(C)C` (stereo not shown) [drawing 10], the MIC amounted to 64 µg/mL (≈ 149 µM) with Aspergillus niger; 32 µg/mL (≈ 74.7 µM) in the test with Candida albicans; 32 µg/mL (≈ 74.7 µM) in the test with Microsporum felinum; 64 µg/mL (≈ 149 µM) in the test with Penicillium commune; 4 µg/mL (≈ 9.34 µM) in test [1].
As for `CC(=O)OC(C(Oc1ccc(F)cc1)n1ccnc1)C(C)(C)C` (stereo not shown), the “Action” value in the test on Candida cells is on record as “+++ (action = ≥ 60% survivors on the 6th day after infection)”.
The same measure, in the same setting: then `CC(C)(C)C(O)C(Oc1cccc(Cl)c1)n1ccnc1` (stereo not shown) [drawing 13], with “+ (trace action = < 40% survivors on 6th day after infection)”.
Take `CC(=O)OC(C(Oc1ccc(Cl)cc1)n1ccnc1)C(C)(C)C` (stereo not shown) [drawing 7]: the MIC was found to be 64 µg/mL (≈ 190 µM) with Aspergillus niger; 32 µg/mL (≈ 95 µM) in the test on Candida albicans; 32 µg/mL (≈ 95 µM) in the test on Microsporum felinum; 32 µg/mL (≈ 95 µM) in the test on Penicillium commune; 4 µg/mL (≈ 11.9 µM) in test [1].
As for `CC(=O)OC(C(Oc1ccc(Br)cc1)n1ccnc1)C(C)(C)C` (stereo not shown) [drawing 9], the MIC stood at 64 µg/mL (≈ 168 µM) with Aspergillus niger; 64 µg/mL (≈ 168 µM) with Candida albicans; 32 µg/mL (≈ 83.9 µM) in the test with Microsporum felinum; 32 µg/mL (≈ 83.9 µM) with Penicillium commune; 4 µg/mL (≈ 10.5 µM) in test [1].
Regarding `CC(=O)OC(C(Oc1ccccc1)n1ccnc1)C(C)(C)C` (stereo not shown), the “Action” value in the test with Candida cells was “++ (weak action = ≥ 40% survivors on the 6th day after infection)”.
Same read-out and setting: next, `CC(=O)OC(C(Oc1ccc(Cl)cc1)n1ccnc1)C(C)(C)C` (stereo not shown) [drawing 15]: “++++ (good action = ≥ 80% survivors on the 6th day after infectio)”.
Still for that read-out and setting: next, `CC(=O)OC(C(Oc1ccc(Br)cc1)n1ccnc1)C(C)(C)C` (stereo not shown) [drawing 16]: “++ (weak action = ≥ 40% survivors on the 6th day after infection)”.
`CC(C)(C)C(O)C(Oc1ccccc1)n1ccnc1` (stereo not shown): the MIC is > 64 µg/mL in the test on Aspergillus niger; 32 µg/mL (≈ 123 µM) in the test with Candida albicans; > 64 µg/mL with Microsporum felinum; > 64 µg/mL in the test with Penicillium commune; 32 µg/mL (≈ 123 µM) in test [1].
On to `CC(=O)OC(C(Oc1ccc(C2CCCCC2)cc1)n1ccnc1)C(C)(C)C` (stereo not shown), for which the MIC came to 64 µg/mL (≈ 166 µM) in the test with Candida albicans, 32 µg/mL (≈ 83.2 µM) in the test with Penicillium commune and 8 µg/mL (≈ 20.8 µM) in test [1].

The record behind these values is patent US4153692A, “Acylated imidazolyl-O,N-acetals, their pharmaceutically acceptable salts and metal complexes” (Bayer Aktiengesellschaft, priority 1976, dated 1979).
